Laboratory results reported in patent EP0552417B1, “Cyclic peptides and use thereof” (priority 1991, dated 1993).
Non-standard residues stand in square brackets, D forms with d. Residues, ends and D or L forms follow the SMILES beside them. *: point of attachment. Bn = c1ccc(C*)cc1

Assays:
ETB = ETB radio receptor assay *2, 125I-endothelin-1, guinea pig kidney crude membrane fraction; format: binding, Guinea pigs; conditions: relative activity, 37 °C, 90 minutes
Experimental: ETB Radio Receptor Assay *2
In the endothelin radio receptor assay, guinea pigs' kidneys were used. Guinea pigs (Std Hartrey, male 250 g, Japan SLC Ltd.) were made to have a cerebral concussion and sacrificed by bleeding from carotid arteries to pick up the kidneys and removed fat therefrom to prepare the kidneys. The obtained kidneys were sliced and homogenized by politron homogenizer in 20 ml of 50 mM Tris-HCl buffer [pH 7.4; 20 mM NaHCO3, 0.1 mM PMSF (Phenylmethylsulfonyl Fluoride), 1 mM EDTA (Ethylenediaminetetraacetic acid)] per one kidney. The homogenized kidney was applied to a centrifugation at 1,000 x g for 15 minutes and the supernatant was further applied to a centrifugation for 20 minutes at 30,000 x g. The resulting precipitate was twice washed with 50 mM Tris-HCl buffer (pH 7.4) containing 0.1 mM PMSF, 1 mM EDTA. The resultant was stored at -80 °C as a crude receptor membrane fraction and was used as the suspension in the following buffer when necessary.
740 Bq of ^125I-endothelin-1 (81.4 TBq/mmol, Du Pont, USA) as a radio ligand, the crude membrane fraction (2.1 µg protein) and samples were added to the following buffer. The reaction was performed at 37 °C, for 90 minutes in 0.2 ml of the buffer [50 mM Tris-HCl buffer (pH 7.4) containing 0.1 mM PMSF, 1 mM EDTA, 0.2% bovine serum albumin].
The reaction was stopped by fast filtration on a glass filter (GF/B, Wattman, USA) by Cell Harvestor (290 PHD, Cambridge-Technology, Great Britain), and the filter was three times washed with 50 mM Tris-HCl buffer (pH 7.4). Radio activity remained on the filter was assayed by a gamma counter.

[1] = biological target: T1, endothelin receptor A (ETA) (Sus scrofa, UniProt Q29010); test: Assay of affinity for receptor (1): binding activity on ETA receptor, 125I-labeled endothelin-1, porcine heart membrane fraction; design: key: relative specific activity; reference cyclic pentapeptide ETA binding = 1.0; conditions: specific activity, taking the binding activity of control cyclo[-D-Glu-Ala-D-aIle-Leu-D-Trp-] on receptor A as 1.0, 25°C, 1 hour
T1 construct: A membrane fraction prepared from the porcine heart; from tissue; host or cells: porcine heart membrane fraction
T1 sequence (Q29010 21-427): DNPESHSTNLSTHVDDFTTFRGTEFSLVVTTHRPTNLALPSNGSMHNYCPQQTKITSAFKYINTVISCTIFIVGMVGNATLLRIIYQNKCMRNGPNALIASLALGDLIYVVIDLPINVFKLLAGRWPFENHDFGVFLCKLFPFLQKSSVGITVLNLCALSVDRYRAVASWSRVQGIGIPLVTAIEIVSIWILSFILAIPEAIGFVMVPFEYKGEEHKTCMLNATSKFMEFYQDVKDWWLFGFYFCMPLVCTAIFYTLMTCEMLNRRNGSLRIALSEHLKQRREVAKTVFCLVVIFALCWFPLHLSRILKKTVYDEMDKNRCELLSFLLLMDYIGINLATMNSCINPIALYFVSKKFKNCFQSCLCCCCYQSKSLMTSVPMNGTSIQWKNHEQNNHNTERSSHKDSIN
Experimental: Assay of Affinity for Receptor (1) ... Binding Activity on ETA Receptor
A membrane fraction prepared from the porcine heart was diluted to 0.15 mg/ml by using a buffer solution for assay, and 100 µl of the resulting suspension of the membrane fraction was poured into each assay tube to use for assay. To this suspension of the membrane fraction was added 2 µl of 5 nM ^125I-labeled endothelin-1 solution. Further, 3 µl of a test peptide solution was added thereto, followed by incubation at a temperature of 25°C for 1 hour. Then, the resulting suspension was diluted with 900 µl of the buffer solution for assay cooled with ice, and thereafter separated into a supernatant and a precipitate by centrifugation at 12,000 X g for 10 minutes. Cell membranes and an endothelin receptor A (ETA) embedded therein were contained in the precipitate, and radioactive iodine-labeled endothelin combined with the receptor was also recovered in the precipitate. Accordingly, the amount of radioactive iodine-labeled endothelin combined with the endothelin receptor A (ETA) was determined by measuring the amount of radioactive iodine contained in the precipitate with a gamma-ray counter. The cyclic pentapeptide described in Japanese Patent Application No. 2-413328/1990, cyclo[-D-Glu-Ala-D-aIle-Leu-D-Trp-], was used as a control compound. The numerical value of ETA shown in Table 1 is the value of specific activity, taking the binding activity of this cyclic pentapeptide on the receptor A as 1.0. The binding activity (IC50) of this cyclic pentapeptide on the ETA receptor is 2x10^-6 M.

SMILES | Binding Activity on ET Receptor (R. act.) ETB*2 (ETB) | Binding Activity on ET Receptor (R. act.) ETA [1]
CC(C)C[C@@H]1NC(=O)[C@@H](CC(C)C)NC(=O)[C@@H](CC(=O)O)NC(=O)[C@H](C)NC(=O)[C@@H](CC(=O)O)NC(=O)[C@@H](Cc2c[nH]c3ccccc23)NC1=O [Example 2, cyclo[-D-Asp-Ala-D-Asp-D-Leu-Leu-D-Trp-]] (cyclo(A[dD][dL]L[dW][dD])) | 3.1 | 3.7
CC(C)C[C@@H]1NC(=O)[C@@H](CC(C)C)NC(=O)[C@H](CCC(=O)O)NC(=O)[C@H](C)NC(=O)[C@@H](CC(=O)O)NC(=O)[C@@H](Cc2c[nH]c3ccccc23)NC1=O [Example 3, cyclo[-D-Asp-Ala-Glu-D-Leu-Leu-D-Trp-]] (cyclo(AE[dL]L[dW][dD])) | 23 | 7.9
CC(C)C[C@@H]1NC(=O)[C@@H](CC(C)C)NC(=O)[C@@H](CCC(=O)O)NC(=O)[C@H](C)NC(=O)[C@@H](CC(=O)O)NC(=O)[C@@H](Cc2c[nH]c3ccccc23)NC1=O [Example 4, cyclo[-D-Asp-Ala-D-Glu-D-Leu-Leu-D-Trp-]] (cyclo(A[dE][dL]L[dW][dD])) | 1.4 | 2.3
CC(C)C[C@@H]1NC(=O)[C@@H](CC(C)C)NC(=O)[C@H](C)NC(=O)CNC(=O)[C@@H](CC(=O)O)NC(=O)[C@@H](Cc2c[nH]c3ccccc23)NC1=O [Example 5, cyclo[-D-Asp-Gly-Ala-D-Leu-Leu-D-Trp-]] (cyclo(A[dL]L[dW][dD]G)) | – | 1.3
CC(C)C[C@@H]1NC(=O)[C@@H](CC(C)C)NC(=O)[C@H](C)NC(=O)[C@H](CC(=O)O)NC(=O)[C@@H](CC(=O)O)NC(=O)[C@@H](Cc2c[nH]c3ccccc23)NC1=O [Example 6, cyclo[-D-Asp-Asp-Ala-D-Leu-Leu-D-Trp-]] (cyclo(A[dL]L[dW][dD]D)) | 7.1 | 6.0
CC(C)C[C@@H]1NC(=O)[C@@H](CC(C)C)NC(=O)[C@H](C)NC(=O)[C@H](CCC(=O)O)NC(=O)[C@@H](CC(=O)O)NC(=O)[C@@H](Cc2c[nH]c3ccccc23)NC1=O [Example 7, cyclo[-D-Asp-Glu-Ala-D-Leu-Leu-D-Trp-]] (cyclo(A[dL]L[dW][dD]E)) | 7.1 | 6.5
CC(C)C[C@@H]1NC(=O)[C@@H](CC(C)C)NC(=O)[C@H](CC(=O)O)NC(=O)[C@@H](C)NC(=O)[C@@H](CC(=O)O)NC(=O)[C@@H](Cc2c[nH]c3ccccc23)NC1=O [Example 15, Cyclo[-D-Asp-D-Ala-Asp-D-Leu-Leu-D-Trp-]] (cyclo(D[dL]L[dW][dD][dA])) | 7.7 | 5.7
CC(C)C[C@@H]1NC(=O)[C@@H](CC(C)C)NC(=O)[C@H](CC(=O)O)NC(=O)[C@H](C(C)C)NC(=O)[C@@H](CC(=O)O)NC(=O)[C@@H](Cc2c[nH]c3ccccc23)NC1=O [Example 17, Cyclo[-D-Asp-Val-Asp-D-Leu-Leu-D-Trp-]] (cyclo(D[dL]L[dW][dD]V)) | 22 | 3.7
CC(C)C[C@@H]1NC(=O)[C@@H](CC(C)C)NC(=O)[C@H](CC(=O)O)NC(=O)[C@H](CC(C)C)NC(=O)[C@@H](CC(=O)O)NC(=O)[C@@H](Cc2c[nH]c3ccccc23)NC1=O [Example 18, Cyclo[-D-Asp-Leu-Asp-D-Leu-Leu-D-Trp-]] (cyclo(D[dL]L[dW][dD]L)) | 2.2 | 13
CC(C)C[C@@H]1NC(=O)[C@@H](CC(C)C)NC(=O)[C@H](CC(=O)O)NC(=O)[C@H](Cc2ccccc2)NC(=O)[C@@H](CC(=O)O)NC(=O)[C@@H](Cc2c[nH]c3ccccc23)NC1=O [Example 19, Cyclo[-D-Asp-Phe-Asp-D-Leu-Leu-D-Trp-]] (cyclo(D[dL]L[dW][dD]F)) | 7.1 | 8.3
CC(C)C[C@@H]1NC(=O)[C@@H](CC(C)C)NC(=O)[C@H](CC(=O)O)NC(=O)[C@H](COCc2ccccc2)NC(=O)[C@@H](CC(=O)O)NC(=O)[C@@H](Cc2c[nH]c3ccccc23)NC1=O [Example 20, Cyclo[-D-Asp-Ser(Bzl)-Asp-D-Leu-Leu-D-Trp-]] (cyclo(D[dL]L[dW][dD]S(Bn))) | 13 | 14
CC(C)C[C@@H]1NC(=O)[C@@H](CC(C)C)NC(=O)[C@H](CC(=O)O)NC(=O)[C@H]2CCCN2C(=O)[C@@H](CC(=O)O)NC(=O)[C@@H](Cc2c[nH]c3ccccc23)NC1=O [Example 24, Cyclo[-D-Asp-D-Pro-Asp-D-Leu-Leu-D-Trp-]] (cyclo(D[dL]L[dW][dD][dP])) | – | 1.7
CC(C)C[C@@H]1NC(=O)[C@@H](CC(C)C)NC(=O)[C@H](C)NC(=O)[C@@H](CC(=O)O)NC(=O)[C@@H](CC(=O)O)NC(=O)[C@@H](Cc2c[nH]c3ccccc23)NC1=O [Example 27, Cyclo[-D-Asp-D-Asp-Ala-D-Leu-Leu-D-Trp-]] (cyclo(A[dL]L[dW][dD][dD])) | 4.8 | 5.7
CC(C)C[C@@H]1NC(=O)[C@@H](CC(C)C)NC(=O)[C@H](C)NC(=O)[C@@H](CCC(=O)O)NC(=O)[C@@H](CC(=O)O)NC(=O)[C@@H](Cc2c[nH]c3ccccc23)NC1=O [Example 28, Cyclo[-D-Asp-D-Glu-Ala-D-Leu-Leu-D-Trp-]] (cyclo(A[dL]L[dW][dD][dE])) | 5.3 | 5.7
CC(C)C[C@@H]1NC(=O)[C@@H](CC(C)C)NC(=O)[C@@H](C)NC(=O)[C@H](CC(=O)O)NC(=O)[C@@H](CC(=O)O)NC(=O)[C@@H](Cc2c[nH]c3ccccc23)NC1=O [Example 29, Cyclo[-D-Asp-Asp-D-Ala-D-Leu-Leu-D-Trp-]] (cyclo(D[dA][dL]L[dW][dD])) | 2.4 | 2.6
CC(C)C[C@@H]1NC(=O)[C@@H](CC(C)C)NC(=O)CNC(=O)[C@H](C)NC(=O)[C@@H](CCC(=O)O)NC(=O)[C@@H](Cc2c[nH]c3ccccc23)NC1=O [Example 40, Cyclo[-D-Glu-Ala-Gly-D-Leu-Leu-D-Trp-]] (cyclo(AG[dL]L[dW][dE])) | – | 1.4
CC(C)C[C@H]1NC(=O)[C@H](CC(=O)O)NC(=O)[C@H](C)NC(=O)[C@@H](CC(=O)O)NC(=O)[C@@H](Cc2c[nH]c3ccccc23)NC(=O)[C@H](Cc2ccccc2)NC1=O [Example 57, Cyclo[-D-Asp-Ala-Asp-D-Leu-Phe-D-Trp-]] (cyclo(AD[dL]F[dW][dD])) | 2.0 | –
